SMILES strings stand for the structures.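 The compound was tested at five concentrations on cells cultured in 96-well plates, with a 48-hour exposure period. GI50: concentration for 50% inhibition of growth. At the TGI there is no net growth.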

Experiment in all cases: growth of human tumour cells (NCI), 48 h
Assay [1] deals with MOLT-4 leukemia.
The test system of assay [2] is OVCAR-4 ovarian.
For assay [3], the system named is CAKI-1 renal.
In assay [4] the test system is SNB-75 CNS.
The test system of assay [5] is K-562 leukemia.
The subject of assay [6] is HT29 colon.
Assay [7] has as its system HCT-116 colon.
The test system of assay [8] is DU-145 prostate.
Assay [9] concerns M14 melanoma.
Assay [10] deals with SR leukemia.
For assay [11], the system named is BT-549 breast.
In assay [12] the test system is MDA-MB-435.
The test system of assay [13] is T-47D breast.
The subject of assay [14] is NCI-H23 lung.
In assay [15] the test system is LOX IMVI melanoma.

Take `O=C(Cc1ccc(Cl)cc1)Nc1ccc2oc(-c3ccccc3)nc2c1`: the TGI in [1] is above 100 µM; in [2], above 100 µM; in [3], above 100 µM; in assay [4] it was 72.1 µM; in assay [5], above 100 µM; in assay [6], above 100 µM. Besides, the TGI in [7], in assay [8], in [9], in [10], in [11] and in [12] was above 100 µM throughout. Besides, the TGI in assay [13], in [14] and in [15] was above 100 µM in each case.
Consider `Nc1nc2n[nH]nc2c(=O)[nH]1`, for which the TGI is 4.35 µM in assay [1]; above 100 µM in assay [2]; above 100 µM in assay [3]; above 66.8 µM in assay [4]; above 100 µM in [5]; above 100 µM in assay [6]. Also, the TGI in assay [7] was 8.95 µM; in [8] it was above 57.5 µM; in [9], 2.98 µM; in assay [10] it was 20.4 µM; in assay [11], 37.8 µM; in assay [12], 29 µM. Also, the TGI was 10.5 µM in [13], above 100 µM in [14] and 6.88 µM in assay [15].
With `CC(C)(C)OC(=O)N1CCC2(C)CC(=O)CC=C12` (stereo not given), the TGI in assay [1], in assay [2], in assay [3], in [4], in assay [5] and in assay [6] was above 100 µM each time. For the same compound, the TGI in assay [7], in [8], in assay [9], in [10], in assay [11] and in [12] was above 100 µM in each case. Further, the TGI in [13], in assay [14] and in [15] was above 100 µM throughout.
As for `CN1CCCOC(c2ccc([N+](=O)[O-])cc2)O1` (stereo not given), the TGI in assay [1], in assay [2], in [3], in assay [4], in assay [5] and in assay [6] was above 100 µM each time. Moreover, the TGI in [7], in [8], in [9], in assay [10], in [11] and in [12] was above 100 µM throughout. The TGI in assay [13], in [14] and in assay [15] was above 100 µM each time.
On to `COCn1cnc2c(=O)n(-c3ccc(OC)cc3)c(=S)n(-c3ccc(OC)cc3)c21`, for which the TGI in [1], in assay [2], in [3], in assay [4], in [5] and in assay [6] was above 100 µM throughout. Moreover, the TGI in assay [7], in [8], in assay [9], in assay [10], in assay [11] and in assay [12] was above 100 µM throughout. Moreover, the TGI in assay [13], in [14] and in assay [15] was above 100 µM each time.
As to `Cc1ccc(C2=C(C#N)C(=O)N3CCN=C3S2)cc1`, the TGI in assay [1], in assay [2], in [3], in assay [4], in assay [5] and in assay [6] was above 100 µM each time. The TGI in [7], in assay [8], in assay [9], in [10], in [11] and in assay [12] was above 100 µM each time. Also, the TGI in assay [13], in [14] and in assay [15] was above 100 µM in each case.
Turning to `O=C1C=CC2(O)OCCN(CCO)C2=C1` (stereo not given) (tested in a mixture with another compound), the TGI in assay [1], in [2], in [3], in [4], in assay [5] and in assay [6] was above 100 µM in each case. Moreover, the TGI in [7], in assay [8], in assay [9], in assay [10], in [11] and in assay [12] was above 100 µM throughout. For the same compound, the TGI in assay [13], in [14] and in [15] was above 100 µM throughout.
As to `Cc1c2c(Cl)c3c(c(Cl)c2c(C)c2c(Cl)c4c(c(Cl)c12)C(c1ccccc1)(c1ccccc1)C4(c1ccccc1)c1ccccc1)C(c1ccccc1)(c1ccccc1)C3(c1ccccc1)c1ccccc1`, the TGI in assay [1], in assay [2], in assay [3], in assay [4], in assay [5] and in assay [6] was above 100 µM throughout. For the same compound, the TGI in [7], in assay [8], in [9], in [10], in assay [11] and in [12] was above 100 µM throughout. Further, the TGI in [13], in assay [14] and in assay [15] was above 100 µM in each case.
For `CC(=O)c1cccc(Nc2nc3ccc(Cl)cc3c3[nH]c4ccccc4c23)c1`, the GI50 is 6.41 µM in assay [1]; 3.56 µM in assay [2]; 2.04 µM in [4]; 4.21 µM in assay [10]; 5.46 µM in [15]. The TGI in assay [1] is above 100 µM; in [2] it was 21.5 µM; in [3], above 36.7 µM; in [4], 8.16 µM; in assay [5] it was above 56.7 µM; in assay [6], 48.5 µM. The TGI in assay [7] is above 54.5 µM; in [8] it was 26.8 µM; in [9], above 100 µM; in assay [10], above 100 µM; in [11], above 100 µM; in assay [12] it was above 100 µM. The TGI in [13] is 50.6 µM; in [14], above 73.8 µM; in assay [15] it was above 100 µM.
On to `CCN(C(C)=O)c1cnc(/C=N/NC(N)=S)c2ccccc12`, for which the TGI is above 31.5 µM in [1]; above 100 µM in assay [2]; above 51.9 µM in [3]; above 100 µM in [4]; above 100 µM in assay [5]; above 100 µM in assay [6]. For the same compound, the TGI is above 100 µM in [7]; above 25 µM in [8]; above 30.7 µM in assay [9]; above 65.8 µM in assay [10]; above 31.1 µM in assay [11]; above 100 µM in assay [12]. Also, the TGI in [13] is above 100 µM; in assay [14] it was above 100 µM; in assay [15], 10.1 µM.
In the case of `O=P1(c2ccccc2)C(c2ccccc2)=CC=C1c1ccccc1`, the TGI in assay [1] was 44 µM; in [2], above 100 µM; in assay [3], above 100 µM; in [4], 60.1 µM; in [5], 22.4 µM; in assay [6], 50.2 µM. Moreover, the TGI in [7] is above 100 µM; in assay [8], above 100 µM; in [9], above 100 µM; in [10], 52.7 µM; in assay [11], above 100 µM; in assay [12], 36.4 µM. For the same compound, the values for the TGI in [13], in assay [14] and in assay [15] were above 100 µM, above 100 µM and 37.8 µM, respectively.
For the compound `COc1ccc2c(c1)-c1[nH]c3ccc(OC)cc3c1CC2`, the TGI in [1] came to 54.4 µM; in assay [2], 29.4 µM; in assay [3] it was 34.8 µM; in assay [4], 26.9 µM; in assay [5], 39.6 µM; in assay [6], 24.9 µM. In addition, the TGI stood at 32.4 µM in [7]; 32.9 µM in assay [8]; 29.5 µM in assay [9]; 53.2 µM in assay [10]; 32.9 µM in assay [11]; 40.2 µM in assay [12]. In addition, the TGI in [13] is 36.6 µM; in [14], 25.8 µM; in assay [15] it was 29.8 µM.
In the case of `N#Cc1ccc(C(=O)/C=C/c2ccc(O)c(O)c2)cc1`, the TGI is 37.6 µM in assay [1]; 25.7 µM in [2]; 29.6 µM in [3]; 36.6 µM in assay [4]; 34 µM in assay [5]; 31.2 µM in assay [6]. Moreover, the TGI amounted to 22.8 µM in [7]; 30 µM in [8]; 32.8 µM in assay [9]; 6.27 µM in [10]; 25.3 µM in [11]; 28.5 µM in assay [12]. In addition, the results for the TGI in assay [13], in assay [14] and in assay [15] were 31.2 µM, 33 µM and 26.3 µM, respectively.
As for `COc1ccc(C2=NN(C(N)=S)C(c3ccccc3)C2)cc1` (stereo not given), the TGI in assay [1] was above 100 µM; in assay [2] it was above 100 µM; in assay [3], above 100 µM; in [4] it was 87.5 µM; in assay [5] it was above 100 µM; in [6], above 100 µM. In addition, the TGI is above 100 µM in assay [7]; above 100 µM in [8]; above 100 µM in assay [9]; 77.3 µM in assay [10]; above 100 µM in assay [11]; above 100 µM in assay [12]. Further, the TGI in assay [13], in [14] and in [15] was above 100 µM throughout.
For `Cc1c(F)c(N)c2c(=O)cc(-c3ccc(N)c(F)c3)oc2c1F`, the TGI in [1] was above 100 µM; in assay [2] it was 48.8 µM; in [3], 0.114 µM; in [4] it was 56.2 µM; in assay [5] it was above 92.9 µM; in assay [6] it was 98.6 µM. For the same compound, the TGI was 38.2 µM in assay [7]; above 100 µM in assay [8]; above 100 µM in assay [9]; 82.8 µM in assay [10]; 36.8 µM in assay [11]; above 100 µM in [12]. Besides, the TGI in assay [13] is 16 µM; in assay [14] it was 68.4 µM; in assay [15], 55.8 µM.
With `Nc1ccc(CCSSCCc2ccc(N)cc2)cc1`, the TGI in assay [1] is 14.7 µM; in assay [2], above 100 µM; in [3] it was above 85.2 µM; in assay [4], above 94.5 µM; in assay [5], above 62.3 µM; in assay [6], 49.7 µM. Further, the TGI was 31.9 µM in [7]; above 87.4 µM in assay [8]; above 74.2 µM in [9]; 31.6 µM in assay [10]; 79.1 µM in assay [11]; above 86.9 µM in assay [12]. Also, the TGI in [13] was above 92.3 µM; in assay [14], above 72.6 µM; in [15], above 59.8 µM.
As for `O=C(NNCc1ccco1)c1cc2ccccc2[nH]1`, the TGI in [1] is above 100 µM; in assay [2], above 71.8 µM; in [3] it was above 100 µM; in [4] it was above 100 µM; in assay [5], above 100 µM; in [6], above 100 µM. The TGI is above 100 µM in assay [7]; above 100 µM in [8]; above 100 µM in [9]; above 100 µM in assay [10]; above 90.5 µM in [11]; above 100 µM in assay [12]. In addition, the TGI in assay [13], in [14] and in assay [15] was above 100 µM throughout.
In the case of `C=CCN1C(=O)/C(=C/c2ccc(C)cc2)NC1=S`, the TGI in [1], in [2], in assay [3], in assay [4], in assay [5] and in assay [6] was above 100 µM in each case. Also, the TGI in assay [7], in assay [8], in assay [9], in assay [10], in assay [11] and in assay [12] was above 100 µM each time. The TGI in assay [13], in assay [14] and in assay [15] was above 100 µM in each case.

For the origin of these results see PubChem BioAssay (NCI).
